Experimental data: PubChem BioAssay AID330 (DTP/NCI, 2004)
Several values for one entry are separate records, joined by “and”; a condition that tells them apart may be missing. Equal entries are not always repeated. Toxic doses and inconclusive results are not listed.

System: P388 leukemia ip, CD2F1 mice, survival T/C
Assay: NCI In Vivo Anticancer Drug Screen. Data for tumor model P388 Leukemia (intraperitoneal) in CD2F1 (CDF1) mice
Settings: endpoint: median survival time, higher = longer survival
Procedure, shortened: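 Mice carrying the transplanted tumor received test compound or vehicle. Survival was recorded in each group, and the value is the treated-group measurement divided by that of the vehicle-treated control group.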

[1] = dose: 12.5 mg/kg/injection, schedule: Q01DX005 (ip), vehicle: saline
[2] = dose: 25.0 mg/kg/injection, schedule: Q01DX005 (ip), vehicle: saline
[3] = dose: 50.0 mg/kg/injection, schedule: Q01DX005 (ip), vehicle: saline

## CN1CCC(CCl)C(c2ccccc2)C1 (stereo unspecified)
[1]
  T/C: 100 % of control
[2]
  T/C: 100 % of control
[3]
  T/C: 107 % of control

## COc1cc2c(cc1OC)-c1c3c(cc4c1[C@H](C2)N(C)CC4)OCO3
dose: 200.0 mg/kg/injection, schedule: Q04DX003 (ip), vehicle: saline with Tween-80
  T/C: 110 % of control
dose: 400.0 mg/kg/injection, schedule: Q04DX003 (ip), vehicle: saline with Tween-80
  T/C: 110 % of control

## COc1ccc(-c2cc3c(c4cc(OC)ccc24)C(=O)OC3=O)cc1
dose: 60.0 mg/kg/injection, schedule: Q01DX005 (ip), vehicle: saline with Tween-80
  T/C: 93 % of control
dose: 120.0 mg/kg/injection, schedule: Q01DX005 (ip), vehicle: saline with Tween-80
  T/C: 97 % of control
dose: 240.0 mg/kg/injection, schedule: Q01DX005 (ip), vehicle: saline with Tween-80
  T/C: 98 % of control

## CCN(CC)CCSCCNc1cc(OC)cc2cccnc12
[1]
  T/C: 101 % of control
[2]
  T/C: 101 % of control
[3]
  T/C: 89 % of control and 97 % of control

## S=P(Oc1cc(Cl)c(Cl)cc1Cl)(N1CCN(c2cccc(Cl)c2)CC1)N1CCN(c2cccc(Cl)c2)CC1
dose: 50.0 mg/kg/injection, schedule: Q01DX005 (ip), vehicle: saline with Tween-80
  T/C: 97 % of control
dose: 100.0 mg/kg/injection, schedule: Q01DX005 (ip), vehicle: saline with Tween-80
  T/C: 88 % of control
dose: 200.0 mg/kg/injection, schedule: Q01DX005 (ip), vehicle: saline with Tween-80
  T/C: 86 % of control

## CC(C)=CC(C)(O)c1nc2ccccc2s1 (stereo unspecified)
dose: 60.0 mg/kg/injection, schedule: Q01DX005 (ip), vehicle: Klucel (hydroxypropylcellulose) (HPC)
  T/C: 95 % of control
dose: 120.0 mg/kg/injection, schedule: Q01DX005 (ip), vehicle: Klucel (hydroxypropylcellulose) (HPC)
  T/C: 93 % of control
dose: 240.0 mg/kg/injection, schedule: Q01DX005 (ip), vehicle: Klucel (hydroxypropylcellulose) (HPC)
  T/C: 96 % of control

## O=C1C(=O)c2ccccc2C(O)=C1CCCc1ccc(C2CCCCC2)cc1
dose: 3.12 mg/kg/injection, schedule: Q01DX009 (ip), vehicle: saline with Tween-80
  T/C: 112 % of control
dose: 6.25 mg/kg/injection, schedule: Q01DX009 (ip), vehicle: saline with Tween-80
  T/C: 101 % of control
dose: 12.5 mg/kg/injection, schedule: Q01DX009 (ip), vehicle: saline with Tween-80
  T/C: 94 % of control
dose: 25.0 mg/kg/injection, schedule: Q01DX009 (ip), vehicle: saline with Tween-80
  T/C: 101 % of control
dose: 50.0 mg/kg/injection, schedule: Q01DX009 (ip), vehicle: saline with Tween-80
  T/C: 94 % of control
dose: 100.0 mg/kg/injection, schedule: Q01DX009 (ip), vehicle: saline with Tween-80
  T/C: 93 % of control
dose: 200.0 mg/kg/injection, schedule: Q01DX009 (ip), vehicle: saline with Tween-80
  T/C: 104 % of control

## COc1ccc(-c2c3ccc(OC)cc3n3ccccc23)cc1
dose: 100.0 mg/kg/injection, schedule: Q01DX002 (ip), vehicle: saline with Tween-80
  T/C: 99 % of control
dose: 200.0 mg/kg/injection, schedule: Q01DX002 (ip), vehicle: saline with Tween-80
  T/C: 97 % of control
dose: 400.0 mg/kg/injection, schedule: Q01DX002 (ip), vehicle: saline with Tween-80
  T/C: 107 % of control

## C[C@]12C=C[C@@]3(CC[C@@H]4[C@](C)(CO)[C@H](O)CC[C@@]4(C)[C@@H]3CC1)C2
dose: 3.5 mg/kg/injection, schedule: Q01DX005 (ip), vehicle: Klucel (hydroxypropylcellulose) (HPC)
  T/C: 89 % of control
dose: 7.0 mg/kg/injection, schedule: Q01DX005 (ip), vehicle: Klucel (hydroxypropylcellulose) (HPC)
  T/C: 100 % of control
dose: 14.0 mg/kg/injection, schedule: Q01DX005 (ip), vehicle: Klucel (hydroxypropylcellulose) (HPC)
  T/C: 92 % of control
dose: 28.0 mg/kg/injection, schedule: Q01DX005 (ip), vehicle: Klucel (hydroxypropylcellulose) (HPC)
  T/C: 96 % of control

## c1cc2cc(-c3ccc4oc(C5=NCCN5)cc4c3)[nH]c2cc1C1=NCCN1
dose: 50.0 mg/kg/injection, schedule: Q01DX005 (ip), vehicle: Klucel (hydroxypropylcellulose) (HPC)
  T/C: 163 % of control
dose: 100.0 mg/kg/injection, schedule: Q01DX005 (ip), vehicle: Klucel (hydroxypropylcellulose) (HPC)
  T/C: 160 % of control
dose: 200.0 mg/kg/injection, schedule: Q01DX005 (ip), vehicle: Klucel (hydroxypropylcellulose) (HPC)
  T/C: 193 % of control

## CN1CCN(C#CC(=O)c2ccc(Cl)cc2)CC1
dose: 7.5 mg/kg/injection, schedule: Q01DX005 (ip), vehicle: saline with Tween-80
  T/C: 114 % of control
dose: 15.0 mg/kg/injection, schedule: Q01DX005 (ip), vehicle: saline with Tween-80
  T/C: 117 % of control

## CN=C(NC#N)NCCSCc1ccc2ccccc2n1
dose: 50.0 mg/kg/injection, schedule: Q01DX005 (ip), vehicle: distilled water + Tween-80 + alcohol
  T/C: 115 % of control
dose: 100.0 mg/kg/injection, schedule: Q01DX005 (ip), vehicle: distilled water + Tween-80 + alcohol
  T/C: 94 % of control

## CC(C)C1=CC2C3C(=O)NC(=O)C3C1C1C3C(=O)NC(=O)C3C21 (stereo unspecified)
dose: 60.0 mg/kg/injection, schedule: Q01DX005 (ip), vehicle: saline
  T/C: 98 % of control
dose: 120.0 mg/kg/injection, schedule: Q01DX005 (ip), vehicle: saline
  T/C: 100 % of control
dose: 240.0 mg/kg/injection, schedule: Q01DX005 (ip), vehicle: saline
  T/C: 100 % of control
